Laboratory results from PubChem BioAssay AID248 (DTP/NCI, 2004).
Where “and” joins values, the source holds several entries; their conditions need not be identical. Equal entries are not always repeated. Inconclusive results and toxic doses are left out. Rule as the data show it: active = T/C of 150% or more; inactive = T/C below 125%.

Test system: L1210 leukemia ip in BDF1 mice, survival T/C
Assay: NCI In Vivo Anticancer Drug Screen. Data for tumor model L1210 Leukemia (intraperitoneal) in B6D2F1 (BDF1) mice
Conditions: endpoint: mean survival time, higher = longer survival
Method in brief: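 Transplanted-tumor mice were given test agent; controls received vehicle only. Survival readings from the two groups were divided (treated over control).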

[1] = dose: 100.0 mg/kg/injection, schedule: Q04DX003 (ip), vehicle: saline
[2] = dose: 100.0 mg/kg/injection, schedule: Q04DX003 (ip), vehicle: Klucel (hydroxypropylcellulose) (HPC)
[3] = dose: 200.0 mg/kg/injection, schedule: Q04DX003 (ip), vehicle: Klucel (hydroxypropylcellulose) (HPC)
[4] = dose: 400.0 mg/kg/injection, schedule: Q04DX003 (ip), vehicle: Klucel (hydroxypropylcellulose) (HPC)
[5] = dose: 100.0 mg/kg/injection, schedule: Q01DX009 (ip), vehicle: Klucel (hydroxypropylcellulose) (HPC)
[6] = dose: 200.0 mg/kg/injection, schedule: Q01DX009 (ip), vehicle: Klucel (hydroxypropylcellulose) (HPC)
[7] = dose: 400.0 mg/kg/injection, schedule: Q01DX009 (ip), vehicle: Klucel (hydroxypropylcellulose) (HPC)
[8] = dose: 100.0 mg/kg/injection, schedule: Q04DX003 (ip), vehicle: saline with Tween-80
[9] = dose: 200.0 mg/kg/injection, schedule: Q04DX003 (ip), vehicle: saline with Tween-80
[10] = dose: 400.0 mg/kg/injection, schedule: Q04DX003 (ip), vehicle: saline with Tween-80
[11] = dose: 100.0 mg/kg/injection, schedule: Q01DX001 (ip), vehicle: carboxymethylcellulose (CMC)
[12] = dose: 200.0 mg/kg/injection, schedule: Q01DX001 (ip), vehicle: carboxymethylcellulose (CMC)
[13] = dose: 400.0 mg/kg/injection, schedule: Q01DX001 (ip), vehicle: carboxymethylcellulose (CMC)
[14] = dose: 100.0 mg/kg/injection, schedule: Q01DX001 (ip), vehicle: saline
[15] = dose: 200.0 mg/kg/injection, schedule: Q01DX001 (ip), vehicle: saline
[16] = dose: 25.0 mg/kg/injection, schedule: Q04DX003 (ip), vehicle: saline with Tween-80
[17] = dose: 50.0 mg/kg/injection, schedule: Q04DX003 (ip), vehicle: saline with Tween-80

Measured: T/C

NC(=O)/C=C/c1cccnc1
inactive: [1] 91 % of control | dose: 200.0 mg/kg/injection, schedule: Q04DX003 (ip), vehicle: saline 98 % of control | dose: 400.0 mg/kg/injection, schedule: Q04DX003 (ip), vehicle: saline 96 % of control

COC1C(C)(C)C2(C)CC[N+]1(Cc1ccccc1)C2 (stereo not drawn)
inactive: dose: 25.0 mg/kg/injection, schedule: Q04DX002 (ip), vehicle: saline 106 % of control | dose: 50.0 mg/kg/injection, schedule: Q04DX002 (ip), vehicle: saline 97 % of control | dose: 100.0 mg/kg/injection, schedule: Q04DX002 (ip), vehicle: saline 116 % of control

CCC(C)OC(c1ccc2c(c1)OCO2)C(C)Br (stereo not drawn)
inactive: dose: 100.0 mg/kg/injection, schedule: Q04DX002 (ip), vehicle: saline with Tween-80 107 % of control | dose: 200.0 mg/kg/injection, schedule: Q04DX002 (ip), vehicle: saline with Tween-80 93 % of control | dose: 400.0 mg/kg/injection, schedule: Q04DX002 (ip), vehicle: saline with Tween-80 96 % of control

Cc1ccc(NC(=O)NCCBr)cc1C
inactive: [2] 96 % of control | [3] 93 % of control | [4] 95 % of control

Cc1cc2oc(/C=C(\C#N)c3ccc([N+](=O)[O-])cc3)c(C)c2cc1C
inactive: [5] 88 % of control | [2] 98 % of control | [6] 103 % of control | [3] 95 % of control | [7] 99 % of control | [4] 98 % of control

COc1cc2c(cc1NC1=NCCO1)OCO2
inactive: dose: 75.0 mg/kg/injection, schedule: Q04DX003 (ip), vehicle: Klucel (hydroxypropylcellulose) (HPC) 101 % of control | dose: 150.0 mg/kg/injection, schedule: Q04DX003 (ip), vehicle: Klucel (hydroxypropylcellulose) (HPC) 93 % of control | dose: 300.0 mg/kg/injection, schedule: Q04DX003 (ip), vehicle: Klucel (hydroxypropylcellulose) (HPC) 103 % of control

CCCCCCCCCCCCc1ccc(-c2cc(-c3ccccc3)cc(-c3ccccc3)c2)cc1
inactive: dose: 75.0 mg/kg/injection, schedule: Q01DX001 (ip), vehicle: saline 100 % of control | dose: 150.0 mg/kg/injection, schedule: Q01DX001 (ip), vehicle: saline 89 % of control | dose: 300.0 mg/kg/injection, schedule: Q01DX001 (ip), vehicle: saline 94 % of control

O=C(O)c1ccc(Nc2ccccc2)cc1
inactive: [8] 103 % of control | [9] 90 % of control | [10] 90 % of control

O=C1NCCCC1C(=O)Nc1cccc2c1NCCC2 (stereo not drawn)
inactive: dose: 100.0 mg/kg/injection, schedule: Q01DX001 (ip), vehicle: Klucel (hydroxypropylcellulose) (HPC) 105 % of control | dose: 200.0 mg/kg/injection, schedule: Q01DX001 (ip), vehicle: Klucel (hydroxypropylcellulose) (HPC) 94 % of control | dose: 400.0 mg/kg/injection, schedule: Q01DX001 (ip), vehicle: Klucel (hydroxypropylcellulose) (HPC) 105 % of control

O=S(c1cc(Br)ccc1O)c1cc(Br)ccc1O
inactive: [11] 98 % of control | [12] 93 % of control | [13] 90 % of control

CSc1ncnc2c1ncn2NC(=O)C1CCC(=O)N1 (stereo not drawn)
inactive: dose: 100.0 mg/kg/injection, schedule: Q01DX009 (ip), vehicle: saline 104 % of control | [2] 107 % of control | dose: 200.0 mg/kg/injection, schedule: Q01DX009 (ip), vehicle: saline 104 % of control | [3] 100 % of control | dose: 400.0 mg/kg/injection, schedule: Q01DX009 (ip), vehicle: saline 106 % of control | [4] 109 % of control

CCC(CC=C(C)C)(CC=C(C)C)c1ccncc1 (tested in a mixture with another compound)
inactive: [14] 97 % of control | [15] 102 % of control | dose: 400.0 mg/kg/injection, schedule: Q01DX001 (ip), vehicle: saline 97 % of control

CNC(=O)Nc1nnnc2ccccc12
inactive: [16] 92 % of control | [17] 94 % of control | [8] 89 % of control

S=C(Nc1ccc(Cl)c(Cl)c1)SCc1ccc(Cl)cc1
inactive: dose: 25.0 mg/kg/injection, schedule: Q04DX003 (ip), vehicle: saline 104 % of control | dose: 50.0 mg/kg/injection, schedule: Q04DX003 (ip), vehicle: saline 101 % of control | [1] 104 % of control

CCOC(=O)C12CCCC1=CC(=O)CC2 (stereo not drawn)
inactive: dose: 100.0 mg/kg/injection, schedule: Q04DX002 (ip), vehicle: Klucel (hydroxypropylcellulose) (HPC) 107 % of control | dose: 200.0 mg/kg/injection, schedule: Q04DX002 (ip), vehicle: Klucel (hydroxypropylcellulose) (HPC) 121 % of control | dose: 400.0 mg/kg/injection, schedule: Q04DX002 (ip), vehicle: Klucel (hydroxypropylcellulose) (HPC) 104 % of control

Cc1c(C(=O)c2ccccc2)c2ccccc2n1C
inactive: dose: 50.0 mg/kg/injection, schedule: Q01DX001 (ip), vehicle: carboxymethylcellulose (CMC) 96 % of control | [11] 91 % of control | [12] 93 % of control | [13] 93 % of control

N#CC(C#N)=Cc1ccc(C=C(C#N)C#N)cc1
inactive: dose: 25.0 mg/kg/injection, schedule: Q04DX003 (ip), vehicle: Klucel (hydroxypropylcellulose) (HPC) 98 % of control | dose: 50.0 mg/kg/injection, schedule: Q01DX009 (ip), vehicle: Klucel (hydroxypropylcellulose) (HPC) 103 % of control | dose: 50.0 mg/kg/injection, schedule: Q04DX003 (ip), vehicle: Klucel (hydroxypropylcellulose) (HPC) 98 % of control | [5] 86 % of control | [2] 98 % of control and 105 % of control | [3] 100 % of control | [4] 108 % of control

Cc1ccc(S(=O)(=O)N/N=C2/CC3CCC(C)(C2)C3)cc1 (stereo not drawn)
inactive: dose: 12.5 mg/kg/injection, schedule: Q04DX003 (ip), vehicle: saline with Tween-80 100 % of control | [16] 98 % of control | [17] 93 % of control

CCOC(=O)N1C(=O)NC(=O)C1c1ccc(Cl)cc1 (stereo not drawn)
inactive: dose: 50.0 mg/kg/injection, schedule: Q01DX001 (ip), vehicle: saline 96 % of control | [14] 112 % of control | [15] 100 % of control

CCOC(=O)c1ccc(NC(=O)Oc2ccc(SC)cc2)cc1
inactive: [5] 90 % of control | [6] 94 % of control | [7] 94 % of control

Clc1cc2c(c3c1CONC3)OCO2
inactive: [8] 92 % of control | [9] 90 % of control | [10] 100 % of control

NC(CSP(=O)(O)O)=NCC12CC3CC(CC(C3)C1)C2
inactive: dose: 10.0 mg/kg/injection, schedule: Q04DX002 (ip), vehicle: Klucel (hydroxypropylcellulose) (HPC) 102 % of control | dose: 20.0 mg/kg/injection, schedule: Q04DX002 (ip), vehicle: Klucel (hydroxypropylcellulose) (HPC) 109 % of control

COC(=O)C#CBr
inactive: dose: 3.13 mg/kg/injection, schedule: Q01DX009 (ip), vehicle: other 108 % of control | dose: 6.25 mg/kg/injection, schedule: Q01DX009 (ip), vehicle: other 97 % of control

CCc1ccc(N=C(C)c2c(O)cc(C)oc2=O)cc1
inactive: [5] 96 % of control | [6] 100 % of control | [7] 96 % of control

O=C(CBr)Nc1cccc(S(=O)(=O)F)c1
inactive: dose: 1.25 mg/kg/injection, schedule: Q01DX009 (ip), vehicle: carboxymethylcellulose (CMC) 89 % of control | dose: 2.5 mg/kg/injection, schedule: Q01DX009 (ip), vehicle: carboxymethylcellulose (CMC) 93 % of control | dose: 2.5 mg/kg/injection, schedule: Q04DX003 (ip), vehicle: carboxymethylcellulose (CMC) 100 % of control | dose: 5.0 mg/kg/injection, schedule: Q01DX009 (ip), vehicle: carboxymethylcellulose (CMC) 86 % of control | dose: 5.0 mg/kg/injection, schedule: Q04DX003 (ip), vehicle: carboxymethylcellulose (CMC) 100 % of control | dose: 10.0 mg/kg/injection, schedule: Q01DX001 (ip), vehicle: carboxymethylcellulose (CMC) 96 % of control | dose: 10.0 mg/kg/injection, schedule: Q04DX003 (ip), vehicle: carboxymethylcellulose (CMC) 93 % of control

CCN(CC)CCOc1cccc(C)c1C
inactive: dose: 25.0 mg/kg/injection, schedule: Q01DX009 (ip), vehicle: saline with Tween-80 101 % of control | dose: 50.0 mg/kg/injection, schedule: Q01DX009 (ip), vehicle: saline with Tween-80 101 % of control | [17] 98 % of control | dose: 100.0 mg/kg/injection, schedule: Q01DX009 (ip), vehicle: saline with Tween-80 102 % of control | [8] 90 % of control
